What follows are molecules tested against T1, human TLR8 (Homo sapiens, UniProt Q9NR97) (assay: HEK293-Blue-hTLR-8 cells assay (SEAP reporter, R848 stimulation)). Conditions: HEK293-Blue-hTLR8 cells, R848 ligand, 20 hrs incubation.
T1 sequence (Q9NR97 27-1041): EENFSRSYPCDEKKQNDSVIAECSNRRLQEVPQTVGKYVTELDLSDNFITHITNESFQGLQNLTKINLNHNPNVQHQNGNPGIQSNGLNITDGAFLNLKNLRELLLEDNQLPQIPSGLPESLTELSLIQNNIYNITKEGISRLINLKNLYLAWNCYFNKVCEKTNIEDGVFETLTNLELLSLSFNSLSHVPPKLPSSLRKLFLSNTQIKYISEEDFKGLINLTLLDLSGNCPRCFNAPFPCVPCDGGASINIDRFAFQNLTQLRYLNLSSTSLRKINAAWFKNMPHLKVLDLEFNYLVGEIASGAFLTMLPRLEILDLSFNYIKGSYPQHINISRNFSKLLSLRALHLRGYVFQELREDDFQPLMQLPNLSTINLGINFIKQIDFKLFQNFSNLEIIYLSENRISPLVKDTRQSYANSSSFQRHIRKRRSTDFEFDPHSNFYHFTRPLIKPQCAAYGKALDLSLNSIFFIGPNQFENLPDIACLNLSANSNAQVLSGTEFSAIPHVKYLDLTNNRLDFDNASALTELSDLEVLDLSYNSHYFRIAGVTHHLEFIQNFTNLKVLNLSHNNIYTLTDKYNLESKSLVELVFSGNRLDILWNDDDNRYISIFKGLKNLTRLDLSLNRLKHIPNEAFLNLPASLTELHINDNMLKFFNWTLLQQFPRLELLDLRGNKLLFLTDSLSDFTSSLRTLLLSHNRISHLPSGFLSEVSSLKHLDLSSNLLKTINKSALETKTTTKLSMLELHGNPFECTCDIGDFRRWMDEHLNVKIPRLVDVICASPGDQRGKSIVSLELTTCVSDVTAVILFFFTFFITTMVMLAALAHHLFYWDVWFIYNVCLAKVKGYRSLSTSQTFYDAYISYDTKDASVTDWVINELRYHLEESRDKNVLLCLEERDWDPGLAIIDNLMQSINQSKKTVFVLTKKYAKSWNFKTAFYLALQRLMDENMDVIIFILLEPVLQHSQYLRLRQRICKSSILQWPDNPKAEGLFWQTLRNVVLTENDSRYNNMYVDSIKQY
Assay type: cell-based
Summary of the method: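 Antagonism was measured in HEK293-Blue-hTLR8 cells with an NF-κB/AP-1-driven SEAP reporter. Cells were stimulated with R848 (10 μL of 60 uM stock) alongside compound (1% DMSO) for 20 hrs at 37° C. Supernatant SEAP was read with QUANTI-Blue after 2 hrs, absorbance at 620-655 nm.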

SMILES	IC50
C[C@H]1CN(c2ccc(C#N)c3ncccc23)C[C@@H]1CN1CCC2(CCNC2)C1 (stereo partly drawn) [Example 35, 5-[(3S,4R)-3-(2,7-diazaspiro[4.4]nonan-2-ylmethyl)-4-methyl-pyrrolidin-1-yl]quinoline-8-carbonitrile]	245 nM
CC(C)[C@@H]1CN(c2ccc(C#N)c3ncccc23)C[C@H]1CN1CCC2(CCNCC2)CC1 (relative stereo) [Example 36, 5-[Trans-3-(3,9-diazaspiro[5.5]undecan-3-ylmethyl)-4-isopropyl-pyrrolidin-1-yl]quinoline-8-carbonitrile]	5170 nM
N#Cc1ccc(N2C[C@H](CN3CCC(N4CCNCC4)CC3)[C@@H](C(F)(F)F)C2)c2cccnc12 [Example 52, 5-[(3S,4R)-3-[(4-piperazin-1-yl-1-piperidyl)methyl]-4-(trifluoromethyl)pyrrolidin-1-yl]quinoline-8-carbonitrile]	88 nM
N#Cc1ccc(N2C[C@H](CN3C4CCC3CC(N)C4)[C@@H](C(F)(F)F)C2)c2nccnc12 (stereo partly drawn) [Example 63, 8-[(3S,4R)-3-[(3-amino-8-azabicyclo[3.2.1]octan-8-yl)methyl]-4-(trifluoromethyl)pyrrolidin-1-yl]quinoxaline-5-carbonitrile]	25 nM
FC(F)(F)c1ccc(N2C[C@@H](CN3CCC4(CCNC4)C3)[C@H](C(F)(F)F)C2)c2nccnc12 (relative stereo) [Example 19, 5-[Trans-3-(2,7-diazaspiro[4.4]nonan-2-ylmethyl)-4-(trifluoromethyl)pyrrolidin-1-yl]-8-(trifluoromethyl)quinoxaline]	253 nM
N#Cc1ccc(N2CC(CN3CCC(N4CCCCC4)CC3)C3(CC3)C2)c2nccnc12 (centres unmarked) [Example 11, 8-[7-[[4-(1-Piperidyl)-1-piperidyl]methyl]-5-azaspiro[2.4]heptan-5-yl]quinoxaline-5-carbonitrile]	24 nM
CN(C)C[C@@H]1CCN(C[C@H]2CN(c3ccc(C#N)c4nccnc34)C[C@@H]2C(F)(F)F)C1 [Example 82, 8-[(3S,4R)-3-[[(3S)-3-[(dimethylamino)methyl]pyrrolidin-1-yl]methyl]-4-(trifluoromethyl)pyrrolidin-1-yl]quinoxaline-5-carbonitrile]	108 nM
N#Cc1ccc(N2CC(CN3CC4CCNCC43)C3(CC3)C2)c2nccnc12 (centres unmarked) [Example 50, 8-[7-(3,8-Diazabicyclo[4.2.0]octan-8-ylmethyl)-5-azaspiro[2.4]heptan-5-yl]quinoxaline-5-carbonitrile]	38 nM
